How the values were obtained:
[1] = system: human colorectal cancer cell line HCT116; experiment: CCK-8 in vitro antitumor activity (Effect Example 1); assay type: cell-based; conditions: HCT-116, HCT116, CCK-8, 72 hours
Protocol: (§1) The CCK-8 method described in “Methods for New Drug Pharmacological Research” (edited by Lv Qiujun, 2007: 242-243) was adopted.
(§2) The cell lines used were human lung adenocarcinoma cell line A549 and human colorectal cancer cell line HCT116, which were cryopreserved and passaged in the pharmacological laboratory of the Shanghai Institute of Pharmaceutical Industry. The culture medium was DMEM supplemented with 10% FBS and antibiotics.
(§3) Cells in logarithmic growth phase were seeded into 96-well plates at a density of 7×10^3 cells per well and incubated at 37° C. in a 5% CO2 environment for 24 hours to maintain a normal physiological pH.
(§4) After cell attachment, different concentrations of the test compounds, namely the bufalin derivatives 1a to 1l prepared in Example 1, as well as the compound doxorubicin, were added to triplicate wells, with 0.1% DMSO added as a control.
(§5) After 72 hours, 10 μL of CCK-8 cell counting kit was added to each well, and the plates were incubated again at 37° C. for 0.5 to 1 hour. The absorbance (OD) was read at 450 nm on a full-featured microplate reader (Biotek Synergy H2), and the concentration causing 50% cell growth inhibition (IC50) was calculated by simulation using GraphPad Prism software.

[2] = system: human lung adenocarcinoma cell line A549; experiment: as above; assay type: cell-based; conditions: A549, CCK-8, 72 hours
Protocol: as §1, §2, §3, §4, §5

[3] = system: Human lung adenocarcinoma cells A549; experiment: CCK-8 in vitro antitumor activity (Table 5); assay type: cell-based; conditions: A549, CCK-8, 72 hours
From the text: (§6) Test Method: The CCK-8 method from “Methods for New Drug Pharmacological Research” edited by Lv Qiujun (2007: 242-243) was adopted.
(§7) Cell lines used: Human lung adenocarcinoma cells A549, human high-metastasis lung cancer cells 95D, and human colon cancer cells HCT116, which were cryopreserved and passaged by the Pharmacological Laboratory of the Shanghai Institute of Pharmaceutical Industry, were selected. The culture medium used was DMEM+10% FBS+antibiotics.
(§8) Cells in the logarithmic growth phase were taken and seeded into 96-well plates at a density of 7×10^3 cells per well. They were then incubated at 37° C. in a 5% CO2 environment for 24 hours to maintain a normal physiological pH.
(§9) After cell adhesion, different concentrations of the test compounds, namely the bufalin derivatives IVa to IVc prepared in Example 5, as well as the comparative compound doxorubicin, were added to three replicate wells, with 0.1% DMSO added to separate wells as a control.
(§10) After 72 hours, 10 μL of the CCK-8 cell counting kit was added to each well, and the plates were incubated again at 37° C. for 0.5 to 1 hour. The absorbance (OD) was read at 450 nm on a full-function microplate reader, Biotek Synergy H2, and the concentration causing 50% inhibition of cell growth (IC50) was calculated through simulation using GraphPad Prism software.

[4] = system: human colon cancer cells HCT116; experiment: CCK-8 in vitro antitumor activity (Table 5); assay type: cell-based; conditions: for IC50: Homo sapiens, HCT-116, HCT116, CCK-8, 72 hours; for activity against HCT116 compared with doxorubicin: HCT116, versus doxorubicin
From the text: as §6, §7, §8, §9, §10

[5] = system: human high-metastasis lung cancer cells 95D; experiment: CCK-8 in vitro antitumor activity (Table 5); assay type: cell-based; conditions: for IC50: Homo sapiens, CCK-8, 72 hours
From the text: as §6, §7, §8, §9, §10

[6] = system: 95D cells; experiment: Cell scratch test, migration of 95D cells; assay type: cell-based, human; conditions: different concentrations, FIG. 1 and FIG. 2
Protocol: Test Method: Draw three parallel lines with a spacing of approximately 0.5 cm on the outer bottom surface of a 6-well plate. After evenly seeding the tumor cells 95D onto the plate (5×10^5 cells/well), create a cell scratch using a pipette. Wash the cells three times with phosphate-buffered saline (PBS) to remove the scratched-off cells. Then, add medium that has been pre-mixed with different concentrations of compound 1a or 1b.
Place the plate in a 37° C., 5% CO2 incubator for culturing. Sample the cells at 0, 12, 24, 36, and 48 hours, and take photographs under a microscope.
Using ImageJ software, measure the area and height of the scratch site. The average scratch width can be obtained by dividing the area by the height. Subtract the scratch width at the end of the experiment from the scratch width at the 0-hour point to obtain the distance of cell migration. Then, use this distance value to calculate the cell migration index (MI) according to the following formula:
Cell Migration Index(MI)=(Initial Blank Width−Blank Width at a Specific Time Point)/Initial Blank Width.

[7] = system: HCT116 colorectal cancer cells xenografts; experiment: In vivo antitumor activity, HCT116 xenografts (Efficacy Example 2); design: species or system BALB/C nude mice; conditions: 1a 10 mg/kg ip × 7, qod, 5-Fluorouracil 15 mg/kg ip × 7
From the text: (§11) Experimental Method: The test animals were male SPF-grade BALB/C nude mice weighing 18 to 20 grams.
(§12) Experimental Procedure: Well-grown HCT116 colorectal cancer tumor masses were cut into uniform small pieces of approximately 3 mm in size under aseptic conditions. A cannula needle was used to inoculate one piece subcutaneously into the right axilla of each test mouse. Nine days after inoculation, the average tumor volume was approximately 113 to 119 mm^3. The animals were then regrouped based on tumor size, eliminating those with excessively large or small tumors, to ensure that the average tumor volume was consistent among the experimental groups. Administration by intraperitoneal injection was then initiated according to the following protocol, with a dosing volume of 0.2 mL per 20 grams of body weight:
(§13) From the 9th day of inoculation, the maximum tumor length (a, in mm) and the perpendicular maximum tumor width (b, in mm) were measured twice a week using a digital electronic caliper.
(§14) The tumor volume (TV) was calculated using the formula: TV=ab^2/2.
(§15) The relative tumor volume (RTV) was calculated using the formula: RTV=Vt/Vo, where Vo is the tumor volume measured at the time of cage distribution (i.e., day 1) and Vt is the tumor volume at each subsequent measurement.
(§16) On the 27th day after inoculation (day 19), the animals were euthanized, weighed, dissected to remove the tumor masses, and the tumor weights were measured.

[8] = system: HCT116 colorectal cancer cells xenografts; experiment: In vivo antitumor activity, HCT116 xenografts (Efficacy Example 3); design: species or system BALB/C nude mice; conditions: 1c 1 mg/kg iv × 7, qod, 5-Fluorouracil 15 mg/kg ip × 7; for Animal weight (After tumor removal): nude mice, HCT116 xenograft; for RTV (d18): relative tumor volume; for TGI (%): tumor volume inhibition
From the text: as §11, §12, §13, §14, §15, §16
This efficacy example employs the same test animals and experimental methods as Efficacy Example 2, with the only difference being that the average tumor volume was approximately 130 to 140 mm^3 on the 13th day after inoculation of HCT116 colorectal cancer tumor masses into the test mice. Subsequently, the animals were regrouped based on tumor size and administered the drug according to the same protocol as in Efficacy Example 2. The animals were euthanized on the 30th day after inoculation (i.e., day 18), and their body weights and tumor weights were measured after dissection.

[9] = molecular target: hERG potassium channel (Homo sapiens, UniProt Q12809); conditions: test concentration 30 μM
Sequence of hERG potassium channel (Q12809 whole entry): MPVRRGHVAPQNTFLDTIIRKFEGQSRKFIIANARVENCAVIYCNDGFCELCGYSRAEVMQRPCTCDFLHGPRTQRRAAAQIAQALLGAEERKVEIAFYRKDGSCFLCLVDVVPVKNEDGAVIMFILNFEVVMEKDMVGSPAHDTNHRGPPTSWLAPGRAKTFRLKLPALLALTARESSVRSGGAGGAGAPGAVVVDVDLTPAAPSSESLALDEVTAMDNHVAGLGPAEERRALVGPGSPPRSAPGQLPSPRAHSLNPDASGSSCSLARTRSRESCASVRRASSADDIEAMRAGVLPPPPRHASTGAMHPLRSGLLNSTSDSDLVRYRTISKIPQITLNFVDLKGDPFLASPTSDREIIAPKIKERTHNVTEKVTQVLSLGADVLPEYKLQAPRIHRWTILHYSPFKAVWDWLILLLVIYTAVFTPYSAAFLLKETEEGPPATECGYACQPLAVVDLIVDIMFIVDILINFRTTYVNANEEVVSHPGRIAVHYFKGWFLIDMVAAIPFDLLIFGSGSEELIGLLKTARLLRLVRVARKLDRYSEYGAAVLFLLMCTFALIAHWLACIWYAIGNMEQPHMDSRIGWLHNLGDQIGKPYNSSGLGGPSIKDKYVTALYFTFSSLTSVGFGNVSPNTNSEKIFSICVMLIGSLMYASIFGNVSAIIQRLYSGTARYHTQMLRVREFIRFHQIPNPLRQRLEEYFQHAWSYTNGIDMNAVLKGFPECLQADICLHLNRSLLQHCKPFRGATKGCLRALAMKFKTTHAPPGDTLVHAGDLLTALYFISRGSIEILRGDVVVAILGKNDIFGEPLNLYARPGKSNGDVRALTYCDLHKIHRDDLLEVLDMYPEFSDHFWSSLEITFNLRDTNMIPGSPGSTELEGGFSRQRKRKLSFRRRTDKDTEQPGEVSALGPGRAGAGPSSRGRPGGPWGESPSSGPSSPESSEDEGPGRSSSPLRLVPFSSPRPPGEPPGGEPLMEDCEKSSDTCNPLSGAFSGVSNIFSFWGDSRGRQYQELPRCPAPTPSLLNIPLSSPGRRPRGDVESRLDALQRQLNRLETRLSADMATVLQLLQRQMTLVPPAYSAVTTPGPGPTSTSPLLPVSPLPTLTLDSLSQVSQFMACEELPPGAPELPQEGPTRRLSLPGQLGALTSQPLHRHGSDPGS
Protocol: Experimental Method: CHO-hERG cells were cultured in a 175 cm^2 flask until the cell density reached 60 to 80%. The culture medium was then removed, and the cells were washed once with 7 mL of Phosphate Buffered Saline (PBS). Subsequently, 3 mL of gentle cell detachment solution (Detachin) was added for digestion. Once the digestion was complete, 7 mL of culture medium was added to neutralize the solution. The cells were then centrifuged, and the supernatant was aspirated. To ensure a cell density of 2 to 5×10^6/mL, 5 mL of culture medium was added to resuspend the cells.
The entire process of forming single-cell high-impedance seals and whole-cell recording mode was automatically completed by the high-throughput, fully automated patch clamp system, namely the Qpatch instrument. After obtaining the whole-cell recording mode, the cells were clamped at −80 mV. Prior to applying a 5-second+40 mV depolarization stimulus, a 50-millisecond −50 mV prepulse was given, followed by a repolarization to −50 mV for 5 seconds, and then returning to −80 mV This voltage stimulus was applied every 15 seconds. After recording for 2 minutes, the extracellular solution was recorded for 5 minutes, and then the drug administration process began.
These stock solutions were then diluted 500-fold with extracellular solution to obtain the final concentrations required for testing.

Compound `CCCOP(=O)(CN1CCC(NC(=O)O[C@H]2CC[C@@]3(C)[C@H](CC[C@@H]4[C@@H]3CC[C@]3(C)[C@@H](c5ccc(=O)oc5)CC[C@]43O)C2)CC1)OCCC` [Compound 1e] has an IC50 [1] of 0.022 µM and an IC50 [2] of 0.058 µM.
`CO[C@H]1CN(C(=O)O[C@H]2CC[C@@]3(C)[C@H](CC[C@@H]4[C@@H]3CC[C@]3(C)[C@@H](c5ccc(=O)oc5)CC[C@]43O)C2)CC[C@H]1NCP(=O)(OC(C)C)OC(C)C` [Compound 1k] gave an IC50 [1] of 0.143 µM and an IC50 [2] of 0.239 µM.
`C[C@]12CC[C@H](OC(=O)NC3CCN(CP(=O)(OC4CCCCC4)OC4CCCCC4)CC3)C[C@H]1CC[C@@H]1[C@@H]2CC[C@]2(C)[C@@H](c3ccc(=O)oc3)CC[C@]12O` [Compound 1h] gave an IC50 [1] of 0.336 µM and an IC50 [2] of 0.023 µM.
`CC(C)OP(=O)(CN1CCN(C(=O)O[C@H]2CC[C@@]3(C)C(CCC4C3CC[C@]3(C)[C@@H](c5ccc(=O)oc5)CC[C@]43O)C2)CC1)OC(C)C` (some centres unmarked) [IVa] showed an IC50 [3] of 0.019 µM, an IC50 [4] of 0.117 µM and an IC50 [5] of 0.574 µM.
With `C[C@]12CC[C@H](OC(=O)NC3CCN(CP(=O)(OC4CCCC4)OC4CCCC4)CC3)C[C@H]1CC[C@@H]1[C@@H]2CC[C@]2(C)[C@@H](c3ccc(=O)oc3)CC[C@]12O` [Compound 1g] the IC50 [1] was 0.289 µM and the IC50 [2] was 0.422 µM.
In the case of `CCOP(=O)(CCN1CCC(NC(=O)O[C@H]2CC[C@@]3(C)[C@H](CC[C@@H]4[C@@H]3CC[C@]3(C)[C@@H](c5ccc(=O)oc5)CC[C@]43O)C2)CC1)OCC` [Compound 1b], the IC50 [1] was less than 0.004 µM, the IC50 [2] was less than 0.004 µM and the “inhibitory effect on the migration of 95D cells” value [6] was “excellent anti-tumor migration effects”.
Compound `COc1cccc2c1C(=O)c1c(O)c3c(c(O)c1C2=O)C[C@@](O)(C(=O)CO)C[C@@H]3O[C@H]1C[C@H](N)[C@H](O)[C@H](C)O1` [Doxorubicin, reference compound] has an IC50 [1] of 0.054 µM, an IC50 [2] of 0.92 µM and an IC50 [3] of 0.008 µM. For the same compound, the IC50 [4] was 0.019 µM and the IC50 [5] was 0.115 µM.
With `O=c1[nH]cc(F)c(=O)[nH]1` [5-Fluorouracil, reference compound] the “Animal weight (After tumor removal)” value ([7]; nude mice, HCT116 xenograft) was 19.20 ± 1.84 g, the “RTV (d18)” value ([7]; relative tumor volume, d18) was 5.52 ± 0.81 and the “TGI (%)” value ([7]; tumor volume inhibition) was 56.16%. The “Animal weight (After tumor removal)” value [8] was 21.84 ± 1.52 g, the “RTV (d18)” value [8] was 7.35 ± 1.55 and the “TGI (%)” value [8] was 59.37%.
`CCOP(=O)(CN1CCC(NC(=O)O[C@H]2CC[C@@]3(C)[C@H](CC[C@@H]4[C@@H]3CC[C@]3(C)[C@@H](c5ccc(=O)oc5)CC[C@]43O)C2)CC1)OCC` [Compound 1d] was tested, and the IC50 [1] was 0.024 µM and the IC50 [2] was 0.037 µM.
In the case of `CCOP(=O)(CCCN1CCN(C(=O)O[C@H]2CC[C@@]3(C)C(CCC4C3CC[C@]3(C)[C@@H](c5ccc(=O)oc5)CC[C@]43O)C2)CC1)OCC` (some centres unmarked) [IVc], the IC50 [3] was 0.011 µM, the “activity against HCT116 compared with doxorubicin” value [4] was “comparable activity against HCT116 to doxorubicin” and the IC50 [4] was 0.027 µM. The IC50 [5] was 0.072 µM and the “activity against 95D compared with doxorubicin” value ([5]; versus doxorubicin) was “superior activity against 95D compared to doxorubicin”.
`CC(C)OP(=O)(CN1CC[C@@H](NC(=O)O[C@H]2CC[C@@]3(C)[C@H](CC[C@@H]4[C@@H]3CC[C@]3(C)[C@@H](c5ccc(=O)oc5)CC[C@]43O)C2)[C@H](O)C1)OC(C)C` [Compound 1i] showed an IC50 [1] of 0.008 µM and an IC50 [2] of 0.015 µM.
With `CC(C)OP(=O)(CNC1CCN(C(=O)O[C@H]2CC[C@@]3(C)[C@H](CC[C@@H]4[C@@H]3CC[C@]3(C)[C@@H](c5ccc(=O)oc5)CC[C@]43O)C2)CC1)OC(C)C` [Compound 1j] the IC50 [1] was 0.02 µM and the IC50 [2] was 0.216 µM.
`C[C@]12CC[C@H](OC(=O)NC3CCN(CP(=O)(OC4CCC4)OC4CCC4)CC3)C[C@H]1CC[C@@H]1[C@@H]2CC[C@]2(C)[C@@H](c3ccc(=O)oc3)CC[C@]12O` [Compound 1f] was tested, and the IC50 [1] was 0.067 µM and the IC50 [2] was 0.026 µM.
`CCOP(=O)(CN1CCN(C(=O)O[C@H]2CC[C@@]3(C)C(CCC4C3CC[C@]3(C)[C@@H](c5ccc(=O)oc5)CC[C@]43O)C2)CC1)OCC` (some centres unmarked) [IVb] was tested, and the IC50 [3] was 0.018 µM, the “activity against HCT116 compared with doxorubicin” value [4] was “comparable activity against HCT116 to doxorubicin” and the IC50 [4] was 0.04 µM. It also gave an IC50 [5] of 0.262 µM.
In the case of `CCOP(=O)(CCCN1CCC(NC(=O)O[C@H]2CC[C@@]3(C)[C@H](CC[C@@H]4[C@@H]3CC[C@]3(C)[C@@H](c5ccc(=O)oc5)CC[C@]43O)C2)CC1)OCC` [Compound 1c], the IC50 [1] was less than 0.004 µM, the IC50 [2] was less than 0.004 µM and the “Animal weight (After tumor removal)” value [8] was 21.02 ± 3.08 g. The “RTV (d18)” value [8] was 6.56 ± 1.79, the “TGI (%)” value [8] was 63.69% and the “Inhibition rate (hERG potassium channel)” value [9] was 53.8±4.13%.
`CC(C)OP(=O)(CNC1CCN(C(=O)O[C@H]2CC[C@@]3(C)[C@H](CC[C@@H]4[C@@H]3CC[C@]3(C)[C@@H](c5ccc(=O)oc5)CC[C@]43O)C2)CC1F)OC(C)C` (some centres unmarked) [Compound 1l] was tested, and the IC50 [1] was 0.12 µM and the IC50 [2] was 0.283 µM.

Source: patent US20250205258A1 (priority 2022, published 2025)
